Experimental data from ChEMBL document CHEMBL1201862, “PubChem BioAssay data set” (2004).
Activity calls are given as the source filed them.

Tests used:
[1] = target: Protein Tat (Human immunodeficiency virus type 1 group M subtype B (isolate HXB2)(HIV-1), UniProt P04608); format: functional;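 further: tat binding to TAR RNA read out by fluorescence polarization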
[2] = tested on: H4; assay: Luminescence Cell-Based Dose Response HTS to Identify Activators of 5'UTR Stem-Loop Driven Prion Protein mRNA Translation in H4 Neuroglioblastoma Cells. [Related pubchem assays: 1829 (Project Summary), 1814 (Primary HTS)]; format: functional; conditions: Homo sapiens
[3] = target: T1, Oxysterols receptor LXR-beta (Homo sapiens, UniProt P55055); format: functional, cell-based;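 further: Cell-based luminescence dose-response assay of agonist activity at LXR, run as a confirmatory counterscreen to a daf-12 agonist screen; HEK293 cells with Gal4-LXR fusion and GAL4-driven luciferase reporter; agonist potency from rising luciferase signal of a Gal4-LXR reporter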
T1 sequence (P55055 whole entry): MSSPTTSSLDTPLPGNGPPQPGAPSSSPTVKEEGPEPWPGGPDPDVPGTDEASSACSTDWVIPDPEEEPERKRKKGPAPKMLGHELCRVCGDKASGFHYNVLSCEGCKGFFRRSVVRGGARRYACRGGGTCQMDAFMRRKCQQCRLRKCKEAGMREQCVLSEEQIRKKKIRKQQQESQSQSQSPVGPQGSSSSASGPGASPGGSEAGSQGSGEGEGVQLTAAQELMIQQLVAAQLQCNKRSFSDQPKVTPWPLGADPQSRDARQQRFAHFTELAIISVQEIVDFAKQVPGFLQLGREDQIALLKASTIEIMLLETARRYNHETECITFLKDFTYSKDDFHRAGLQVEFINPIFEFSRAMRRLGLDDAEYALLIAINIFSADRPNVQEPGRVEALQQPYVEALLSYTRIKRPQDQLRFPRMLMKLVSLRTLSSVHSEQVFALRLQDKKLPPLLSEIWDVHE

[4] = cells
[5] = target: Phospholipase D1 (Homo sapiens, UniProt Q13393); assay: PLD1 Cellular Concentration Response Study.; format: functional
Phospholipase D1, sequence (Q13393 whole entry): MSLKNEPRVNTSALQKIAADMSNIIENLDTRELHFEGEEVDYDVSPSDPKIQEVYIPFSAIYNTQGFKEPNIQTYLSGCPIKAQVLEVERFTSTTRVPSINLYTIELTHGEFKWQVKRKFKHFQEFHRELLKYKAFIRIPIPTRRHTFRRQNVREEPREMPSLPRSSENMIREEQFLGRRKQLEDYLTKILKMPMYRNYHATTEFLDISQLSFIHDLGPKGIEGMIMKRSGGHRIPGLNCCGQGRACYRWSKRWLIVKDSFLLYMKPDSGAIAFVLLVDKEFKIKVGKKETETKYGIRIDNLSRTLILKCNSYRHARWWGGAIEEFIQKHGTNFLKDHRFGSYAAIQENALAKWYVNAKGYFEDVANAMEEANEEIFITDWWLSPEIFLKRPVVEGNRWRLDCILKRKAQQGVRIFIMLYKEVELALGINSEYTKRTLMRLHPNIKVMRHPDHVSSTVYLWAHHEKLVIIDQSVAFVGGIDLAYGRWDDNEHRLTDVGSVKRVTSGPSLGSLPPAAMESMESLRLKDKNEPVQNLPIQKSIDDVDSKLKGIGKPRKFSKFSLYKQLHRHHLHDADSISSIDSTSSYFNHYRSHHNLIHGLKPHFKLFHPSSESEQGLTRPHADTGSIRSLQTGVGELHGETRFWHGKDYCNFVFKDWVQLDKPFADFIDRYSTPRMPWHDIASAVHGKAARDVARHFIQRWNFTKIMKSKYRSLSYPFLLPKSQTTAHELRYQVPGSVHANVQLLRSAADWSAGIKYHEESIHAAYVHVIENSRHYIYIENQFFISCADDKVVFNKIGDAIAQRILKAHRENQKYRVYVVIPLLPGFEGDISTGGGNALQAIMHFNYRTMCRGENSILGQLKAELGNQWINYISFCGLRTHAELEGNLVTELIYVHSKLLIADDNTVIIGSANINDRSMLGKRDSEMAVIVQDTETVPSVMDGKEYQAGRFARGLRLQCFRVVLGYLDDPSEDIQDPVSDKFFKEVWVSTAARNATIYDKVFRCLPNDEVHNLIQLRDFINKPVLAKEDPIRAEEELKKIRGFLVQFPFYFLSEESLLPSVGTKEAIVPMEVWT

[6] = target: Phospholipase D2 (Homo sapiens, UniProt O14939); assay: PLD2 Cellular Concentration Response Study.; format: functional
Phospholipase D2, sequence (O14939 whole entry): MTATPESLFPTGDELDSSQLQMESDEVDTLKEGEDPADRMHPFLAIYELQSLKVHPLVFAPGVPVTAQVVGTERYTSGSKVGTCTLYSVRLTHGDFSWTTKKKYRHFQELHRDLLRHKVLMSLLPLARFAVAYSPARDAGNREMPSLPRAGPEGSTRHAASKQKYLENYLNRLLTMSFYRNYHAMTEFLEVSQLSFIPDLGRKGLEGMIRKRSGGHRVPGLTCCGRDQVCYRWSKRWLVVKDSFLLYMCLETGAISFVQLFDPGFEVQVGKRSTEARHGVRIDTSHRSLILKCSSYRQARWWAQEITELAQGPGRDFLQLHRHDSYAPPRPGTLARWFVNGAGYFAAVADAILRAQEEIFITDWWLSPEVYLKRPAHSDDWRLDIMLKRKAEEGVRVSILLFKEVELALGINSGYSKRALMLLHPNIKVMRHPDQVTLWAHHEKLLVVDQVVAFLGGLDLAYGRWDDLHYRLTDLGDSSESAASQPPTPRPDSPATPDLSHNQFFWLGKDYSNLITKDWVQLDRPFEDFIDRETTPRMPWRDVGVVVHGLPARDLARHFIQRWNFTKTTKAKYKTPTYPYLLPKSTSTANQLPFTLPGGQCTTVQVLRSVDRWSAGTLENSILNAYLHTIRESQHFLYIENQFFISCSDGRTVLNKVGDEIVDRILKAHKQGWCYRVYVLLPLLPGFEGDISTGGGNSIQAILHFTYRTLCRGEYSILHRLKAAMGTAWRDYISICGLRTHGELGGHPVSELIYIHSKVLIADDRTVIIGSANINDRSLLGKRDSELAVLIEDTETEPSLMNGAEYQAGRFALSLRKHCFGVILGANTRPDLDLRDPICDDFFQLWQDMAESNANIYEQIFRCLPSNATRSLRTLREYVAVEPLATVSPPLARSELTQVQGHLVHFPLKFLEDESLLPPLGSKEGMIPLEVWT

[7] = cytotoxicity toward HCT116 cells – cell-based, CellTiter-Glo luminescence, IC50, dose response (AID 1117332); format: functional; conditions: HCT-116
[8] = Reduced DLD-1 viability, concentration-response, CellTiter-Glo luminescence (AID 1117352); format: functional
[9] = cytotoxicity toward HT-29 cells – cell-based, CellTiter-Glo luminescence, IC50, dose response (AID 1117330); format: functional
[10] = SNU-C1 cell viability reduction, dose response, CellTiter-Glo luminescence (AID 1117323); format: functional, cell-based
[11] = cytotoxicity toward Colo320 cells – cell-based, CellTiter-Glo luminescence, IC50, dose response (AID 1117334); format: functional; conditions: COLO 320
[12] = HCT116 cell viability decrease, GSK3B pretreatment – CellTiter-Glo, IC50, dose response (AID 1117339); format: functional; conditions: HCT-116
[13] = RKO cell viability reduction, dose response, CellTiter-Glo luminescence (AID 1117322); format: functional
[14] = CellTiter-Glo luminescence survival assay, SW480 colon tumor line, concentration-response curve, half-maximal inhibitory concentration (AID 1117338); format: functional
[15] = IC50 of insulin release inhibition, rat insulinoma INS-1E line, 5 mM glucose, cell-based (AID 1117331); format: functional
[16] = cells; format: functional, cell-based; conditions: INS-1E
[17] = HIV-1 AD8 envelope cell-cell fusion blockers – cherry-pick, dose response (AID 652062); format: functional, cell-based;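 further: luciferase signal from cell-cell fusion driven by HIV-1 clade B AD8 Env; potency is for inhibitors of fusion seen as a drop in luminescence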
[18] = inhibition of Env-driven cell fusion – HIV entry, plate reader, dry powder, dose response (AID 687023); format: functional, cell-based
[19] = viability loss in CEM21 cells – cell-based, plate reader, dry powder, cytotoxicity control, dose response (AID 687026); format: functional
[20] = blockers of HIV-1 envelope-mediated cell-cell fusion – cherry-pick, dose response (AID 652057); format: functional, cell-based
[21] = target: NAD-dependent protein deacylase sirtuin-5, mitochondrial (Homo sapiens, UniProt Q9NXA8); assay: sirtuin-5 deacylation blockers, concentration series – biochemical, fluorescence imaging, cherry-pick, set 5, dose response (AID 720591);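 further: desuccinylation of succinyl peptide AMC substrate read as fluorescence after trypsin release; potency of inhibitors that lower fluorescence and may act on trypsin instead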
NAD-dependent protein deacylase sirtuin-5, mitochondrial, sequence (Q9NXA8 whole entry): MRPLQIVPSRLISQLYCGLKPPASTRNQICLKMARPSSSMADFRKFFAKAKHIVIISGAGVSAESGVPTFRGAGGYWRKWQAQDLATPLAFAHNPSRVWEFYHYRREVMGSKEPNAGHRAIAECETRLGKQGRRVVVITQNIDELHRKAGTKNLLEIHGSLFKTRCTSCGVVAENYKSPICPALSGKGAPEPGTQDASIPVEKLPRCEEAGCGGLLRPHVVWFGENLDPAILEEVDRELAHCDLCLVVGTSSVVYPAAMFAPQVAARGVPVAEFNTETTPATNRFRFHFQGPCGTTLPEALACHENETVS

Protein Tat, sequence (P04608 whole entry): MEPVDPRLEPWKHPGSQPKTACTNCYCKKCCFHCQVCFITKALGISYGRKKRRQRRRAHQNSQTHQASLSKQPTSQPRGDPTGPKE

Q: For `CCc1ccccc1N(CC(=O)NCCSCc1ccco1)S(C)(=O)=O`, which IC50 [1] is on record?
A: > 100 µM (active)

Q: What does the source list for `C/C(=N\Nc1nc2c(s1)CCCC2)c1ccccc1`?
A: EC50 [2]: 5.13 µM (active); EC50 [3]: > 67.5 µM (inactive); EC50 [4]: > 67.5 µM (inactive)

Q: Which IC50 [5] does the source give for `O=C(NCCN1CCC2(CC1)C(=O)NCN2C(=O)c1cccc(F)c1)c1ccc2ccccc2c1` here?
A: 8.76 µM (active)

Q: And the IC50 [6]?
A: 2.75 µM (active)

Q: Which IC50 [7] does the source give for `ClC1=C(Cl)C2(Cl)C(CBr)CC1(Cl)C2(Cl)Cl` (stereo unspecified) [BROMOCICLEN] here?
A: > 20 µM (inactive)

Q: And the IC50 [8]?
A: > 20 µM (inactive)

Q: And the IC50 [9]?
A: > 20 µM (inactive)

Q: What about the IC50 [10] of the same molecule?
A: > 20 µM (inactive)

Q: And the IC50 [11]?
A: > 20 µM (inactive)

Q: What about the IC50 [12] of the same molecule?
A: > 20 µM (inactive)

Q: What about the IC50 [13] of the same molecule?
A: > 20 µM (inactive)

Q: What about the IC50 [14] of the same molecule?
A: > 20 µM (inactive)

Q: Which results are given for `c1cc(CN2CCCCC2)cc(OCCCNc2nc3ccccc3s2)c1`?
A: IC50 [15]: > 11.1 µM (inactive); IC50 [16]: > 33.3 µM (inactive)

Q: With `C[C@@H]1CN([C@H](C)CO)C(=O)c2cccc(NC(=O)C3CCCCC3)c2O[C@H]1CN(C)Cc1ccccc1` as the molecule, how does the AC50 [17] read?
A: 3.35 µM (active)

Q: What about the AC50 [18] of the same molecule?
A: 8.1 µM (active)

Q: What about the AC50 [19] of the same molecule?
A: 31 µM (active)

Q: And the AC50 [20]?
A: 12.1 µM (active)

Q: With `Cc1cccc(Cn2c(N(C)CCO)nc3c2c(=O)[nH]c(=O)n3C)c1` as the molecule, how does the AC50 [21] read?
A: > 30 µM (inactive)
